Experimental data reported in article PMC10287695, “Non-covalent inhibitors of thioredoxin glutathione reductase with schistosomicidal activity in vivo” (Nature Communications, 2023).
Where “and” joins values, the source holds several entries; their conditions need not be identical. Equal entries are not always repeated. Where two headings read alike, the source gives them in different places.

How the values were obtained:
[1] = human, in vivo; cited from earlier work
[2] = test system: S. mansoni NTS; assay: Phenotypic assessment of PZQ activity on NTS; assay type: cell-based; conditions: for % Effect, single replicates I, II, III / % Effect / NTS phenotypic score, Mean / IC50: 24 hour exposure; for % Effect: from mean score, 100 - Average (Test) x 100 / Average (Control); for NTS phenotypic score, Mean: score 3 (motile) to 0 (dead); for IC50: NTS phenotypic scoring
Procedure: About 200 NTS incubated at 37 °C in a 5% CO2 incubator overnight were exposed to different concentrations of PZQ (1, 5, 10, 20, 30, 40 and 50 µM) and control without treatment for 24 h in triplicate. Worm images were acquired using Keyence BZ-X800 microscope and PZQ activity evaluated phenotypically. NTS viability was assessed by scoring worms based on morphological changes and motility. Viability scores of 3 = motile, no changes to morphology and transparency, 2 = reduced motility and/or some damage to tegument as well as reduced transparency and increased granularity, 1 = severe reduction of motility and/or damage to tegument with high opacity and high granularity, and 0 = dead.

[3] = Pharmacokinetics, intraperitoneal administration; assay type: in vivo, Swiss Webster mice; conditions: for Plasma concentration, single animal / concentration at 0 h / concentration at 0.5 h / concentration at 1 h / concentration at 2 h: IP; for Plasma concentration, single animal / concentration at 0 h / concentration at 0.5 h / concentration at 1 h / concentration at 2 h / concentration at 30 min / concentration at 60 min / concentration at 120 min / plasma concentration: 100 mg/kg; for concentration at 0 h / concentration at 0.5 h / concentration at 1 h / concentration at 2 h / concentration at 30 min / concentration at 60 min / concentration at 120 min / Cmax / half-life: male, Swiss Webster, mouse, plasma, ip; for concentration at 30 min / concentration at 60 min / concentration at 120 min / Cmax / half-life / overt toxicity / plasma concentration: mice; for Cmax: at 30 min; for half-life: estimated from the time points available
Procedure: All the mice were weighed and dosed intraperitoneally accordingly at 100 mg/kg body weight with freshly prepared 1 or 2.
Blood was collected by submandibular puncture into 1 mL Eppendorf tubes, the plasma was separated and stored in −80 °C until used. A 25 µl of mouse plasma was transferred into 1.5 ml centrifuge tube which was spiked with 2.5 µl of internal standard (IS) working standard solution […] to get final IS contraction of 250 ng/ml and the solution was vortexed. An aliquot of 75 µl of methanol/0.15 formic acid was added and gently vortexed for 2 min. The samples then centrifuged for 20 min at 4 °C and 15000 × g. A clear supernatant (50 µl) with added 50 µl mobile phase (reconstitution solution) from each extraction was then transferred into a 250 µl autosampler vial. A 3 µl aliquot of each sample was injected for LC-MSMS analysis.
The total run time of 2 min with an injection volume of 3 μl at column temperature 40 °C were efficient to achieve accepted results.
A Shimadzu LC20AD, Ultra Performance Liquid Chromatography (UPLC) system (Shimadzu Corporation, Kyoto, Japan) equipped with Shimadzu 8040 triple quadrupole (QqQ) mass analyzer (Shimadzu Corporation, Kyoto, Japan) with an electrospray ionization source (ESI) operated in the positive charge mode for the quantification of 1 and 2.

[4] = 0 Hour, read-out: Plasma concentration, Average
[5] = 0 Hour, read-out: Plasma concentration, single animal
[6] = 0.5 Hour, read-out: Plasma concentration, Average
[7] = 0.5 Hour, read-out: Plasma concentration, single animal
[8] = 1 Hour, read-out: Plasma concentration, Average
[9] = 1 Hour, read-out: Plasma concentration, single animal
[10] = 2 Hour, read-out: Plasma concentration, Average
[11] = 2 Hour, read-out: Plasma concentration, single animal

| Structure (SMILES) | concentration at 0 h [3, 4] | concentration at 0 h [3, 5] | concentration at 0.5 h [3, 6] | concentration at 0.5 h [3, 7] | concentration at 1 h [3, 8] | concentration at 1 h [3, 9] | concentration at 2 h [3, 10] | concentration at 2 h [3, 11] | concentration at 30 min ([3]; 100 mg/kg i.p., 30 min) | concentration at 60 min ([3]; 100 mg/kg i.p., 60 min) | concentration at 120 min ([3]; 100 mg/kg i.p., 120 min) | concentration at 30 min ([3]; intraperitoneal, 30 min) | concentration at 60 min ([3]; intraperitoneal, 60 min) | concentration at 120 min ([3]; intraperitoneal, 120 min) | Cmax ([3]; 100 mg/kg i.p.) | half-life ([3]; 100 mg/kg i.p.) | overt toxicity ([3]; 100 mg/kg i.p.) | plasma concentration ([3]; 100 mg/kg i.p., 30 min) | plasma concentration ([3]; 100 mg/kg i.p., 60 min) | plasma concentration ([3]; 100 mg/kg i.p., 120 min) | further results |
| --- | --- | --- | --- | --- | --- | --- | --- | --- | --- | --- | --- | --- | --- | --- | --- | --- | --- | --- | --- | --- | --- |
| O=C(C1CCCCC1)N1CC(=O)N2CCc3ccccc3C2C1 (centres unmarked) [PZQ, praziquantel] | – | – | – | – | – | – | – | – | – | – | – | – | – | – | – | – | – | – | – | – | half-life [1]: 1.6 h; % Effect, single replicates I, II, III ([2]; 10 µM): 9.401% and 12.151% and 16.3217%; % Effect ([2]; 10 µM): 12.6338%; NTS phenotypic score, Mean ([2]; 10 µM, mean of 3 replicates): 2.613; % Effect, single replicates I, II, III ([2]; 20 µM): 15.8245% and 13.8003% and 19.4239%; % Effect ([2]; 20 µM): 16.3511%; NTS phenotypic score, Mean ([2]; 20 µM, mean of 3 replicates): 2.502; % Effect, single replicates I, II, III ([2]; 30 µM): 25.0655% and 24.6184% and 29.7619%; % Effect ([2]; 30 µM): 26.486%; NTS phenotypic score, Mean ([2]; 30 µM, mean of 3 replicates): 2.199; % Effect, single replicates I, II, III ([2]; 40 µM): 41.1572% and 48.5123% and 41.922%; % Effect ([2]; 40 µM): 43.8717%; NTS phenotypic score, Mean ([2]; 40 µM, mean of 3 replicates): 1.679; % Effect, single replicates I, II, III ([2]; 50 µM): 60.2247% and 58.8296% and 61.8051%; % Effect ([2]; 50 µM): 60.2866%; NTS phenotypic score, Mean ([2]; 50 µM, mean of 3 replicates): 1.188; LD50 for NTS, phenotypic analysis ([2]; 24 h exposure): 42.9 ± 0.83 µM; IC50 ([2]; FORECAST interpolation, read-out: IC50, single replicates I, II, III): 42.6 µM and 42.3 µM; IC50 ([2]; Schistosoma mansoni, 24 h, FORECAST interpolation, read-out: IC50, single replicates I, II, III): 43.9 µM; IC50 ([2]; Schistosoma mansoni, 24 h, mean of 3 replicates, read-out: IC50, Mean): 42.9 µM |
| CCc1ccccc1-c1nc(CN[C@@H]2C[C@@H]3C[C@H]([C@H]2C)C3(C)C)c(C)o1 [Compound 2] | 0 nM and 0 ng/mL | 0 nM and 0 ng/mL | 4.8 µM and 1690 ng/mL | 4.12 µM and 1450 ng/mL | 3.91 µM and 1520 ng/mL | 3.29 µM and 1600 ng/mL | 3.06 µM and 1080 ng/mL | 2.39 µM and 846 ng/mL | 4.8 ± 0.612 µM | 3.91 ± 0.674 µM | 3.06 ± 0.578 µM | 1690 ± 216 ng/mL | 1520 ± 158 ng/mL | 1080 ± 202 ng/mL | 4.8 µM | ~1.5 h | no overt toxicity | 4.8 µM | 3.9 µM | 3.0 µM | Plasma concentration, single animal ([3]; 0 Hour, listed as 2 (8VP101)): 0.000 uM (2×) and 0.000 ug/mL (2×); Plasma concentration, single animal ([3]; 0.5 Hour, listed as 2 (8VP101)): 4.991 uM and 5.302 uM and 1.758 ug/mL and 1.868 ug/mL; Plasma concentration, single animal ([3]; 1 Hour, listed as 2 (8VP101)): 4.630 uM and 3.814 uM and 1.631 ug/mL and 1.343 ug/mL; Plasma concentration, single animal ([3]; 2 Hour, listed as 2 (8VP101)): 3.386 uM and 3.401 uM and 1.193 ug/mL and 1.198 ug/mL |
| Cc1oc(-c2ccc3c(c2)OCO3)nc1CN[C@@H]1C[C@@H]2C[C@H]([C@H]1C)C2(C)C [Compound 1] | 0 nM and 0 ng/mL | 0 nM and 0 ng/mL | 4.11 µM and 1510 ng/mL | 4.16 µM and 1530 ng/mL | 3.28 µM and 1210 ng/mL | 3.16 µM and 1160 ng/mL | 2.35 µM and 865 ng/mL | 2.05 µM and 754 ng/mL | 4.11 ± 0.047 µM | 3.28 ± 0.318 µM | 2.35 ± 0.277 µM | 1510 ± 17 ng/mL | 1210 ± 117 ng/mL | 865 ± 102 ng/mL | 4.1 µM | ~1.5 h | no overt toxicity | 4.1 µM | 3.3 µM | 2.4 µM | Plasma concentration, single animal ([3]; 0 Hour, listed as 1 (8VP70)): 0.000 uM (2×) and 0.000 ug/mL (2×); Plasma concentration, single animal ([3]; 0.5 Hour, listed as 1 (8VP70)): 4.093 uM and 4.069 uM and 1.508 ug/mL and 1.499 ug/mL; Plasma concentration, single animal ([3]; 1 Hour, listed as 1 (8VP70)): 3.040 uM and 3.641 uM and 1.120 ug/mL and 1.342 ug/mL; Plasma concentration, single animal ([3]; 2 Hour, listed as 1 (8VP70)): 2.409 uM and 2.589 uM and 0.888 ug/mL and 0.954 ug/mL |
